Data published in patent US11214803B2, “Modulators of YAP1 expression” (Ionis Pharmaceuticals, Inc., priority 2019, dated 2022).
Strand notation (5' to 3'): a small letter for the sugar, then the base; units joined by * are phosphorothioate-linked, units joined directly phosphodiester-linked; [ ] holds rarer units or linkages, { } end groups; capitals alone tell only the bases. k = constrained ethyl (cEt); [5mC] = 5-methylcytosine; d = 2'-deoxy (DNA)

Tested on: Yap1 mRNA
Test: Antisense inhibition of human Yap1 in A-431 cells by cEt gapmers, single dose (Example 2, RTS4814)
Format: cell-based
Settings: A-431 cells, 5,000 cells per well, free uptake, 2,000 nM modified oligonucleotide, approx. 48 hours, RTS4814, normalized to RIBOGREEN; Table 4; asterisk (*) = targets amplicon region of primer probe set
How it was run: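 Yap1 mRNA levels, by real-time RT-PCR (RTS4814) and corrected for total RNA via RIBOGREEN, are given as percent of untreated cells. Gapmers (16-mer, cEt wings, phosphorothioate, 5-methylC) were delivered without transfection at 2,000 nM to A-431 cells for about 48 hours.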

| Substance | YAP1 (% UTC) |
| --- | --- |
| 716448 (k[5mC]*k[5mC]*kG*dA*d[5mC]*dA*dA*dA*dA*d[5mC]*d[5mC]*dA*dA*k[5mC]*k[5mC]*kA; antisense) [Compound 716448] | 62 |
| 716574 (kT*kA*k[5mC]*dA*d[5mC]*dT*dG*dT*dA*dT*dA*dT*dG*kT*kT*k[5mC]; antisense) [Compound 716574] | 91 |
| 716505 (antisense kG*kA*kT*dT*dT*dA*dA*dT*d[5mC]*dT*dT*dT*d[5mC]*kT*kG*k[5mC]) [Compound 716505] | 35 |
| 716526 (antisense kT*k[5mC]*kA*dA*dA*dG*d[5mC]*dA*d[5mC]*dT*dG*dT*dG*k[5mC]*k[5mC]*kA) [Compound 716526] | 88 |
| 716511 (antisense kG*kA*kT*d[5mC]*dT*dT*d[5mC]*dT*dG*d[5mC]*dA*d[5mC]*dA*kT*kT*kA) [Compound 716511] | 51 |

Same assay, conditions: Table 5; A-431 cells, 5,000 cells per well, free uptake, 2,000 nM modified oligonucleotide, approx. 48 hours; RTS4814; normalized to RIBOGREEN; Yap1 mRNA relative to untreated control cells

| Substance | YAP1 (% UTC) |
| --- | --- |
| 716545 (kG*k[5mC]*kA*dT*dG*dT*dA*dT*dT*dT*dA*dA*dT*kA*kT*kG; antisense) [Compound 716545] | 91 |

Same assay, conditions: Table 6; A-431 cells, 5,000 cells per well, free uptake, 2,000 nM modified oligonucleotide, approx. 48 hours; RTS4814; normalized to RIBOGREEN; Yap1 mRNA relative to untreated control cells

| Substance | YAP1 (% UTC) |
| --- | --- |
| 716396 (k[5mC]*kA*kG*dT*dT*d[5mC]*dT*dT*dG*d[5mC]*dT*dG*dT*kT*kT*k[5mC]; antisense) [Compound 716396] | 123 |
| 716363 (k[5mC]*kG*kG*dA*d[5mC]*dG*dG*d[5mC]*dG*dG*dG*d[5mC]*d[5mC]*k[5mC]*kT*kG; antisense) [Compound 716363] | 103 |
| 716399 (kA*kA*kT*dT*dT*dG*d[5mC]*dT*dG*dT*dG*d[5mC]*dT*kG*kG*kG; antisense) [Compound 716399] | 40 |
| 716525 (antisense k[5mC]*kA*k[5mC]*dA*dG*dT*dA*d[5mC]*dT*dG*d[5mC]*dT*dA*k[5mC]*kA*kA) [Compound 716525] | 64 |

Same assay, conditions: Table 18; A-431 cells, 5,000 cells per well, free uptake, 2,000 nM modified oligonucleotide, approx. 48 hours; RTS4814; normalized to RIBOGREEN; Yap1 mRNA as percent of untreated control

| Substance | YAP1 (% UTC) |
| --- | --- |
| 1074852 (antisense kA*kA*kT*dT*dG*dT*dT*dA*dT*dG*dA*dT*dA*kG*kG*k[5mC]) [Compound 1074852] | 4 |

Same assay, conditions: Table 19; A-431 cells, 5,000 cells per well, free uptake, 2,000 nM modified oligonucleotide, approx. 48 hours; RTS4814; normalized to RIBOGREEN; Yap1 mRNA as percent of untreated control

| Substance | YAP1 (% UTC) |
| --- | --- |
| 1074533 (antisense kT*kA*kG*dA*dA*d[5mC]*dA*d[5mC]*dT*dA*dA*dA*d[5mC]*kT*kA*k[5mC]) [Compound 1074533] | 80 |
| 1076165 (k[5mC]*k[5mC]*k[5mC]*d[5mC]*dA*dA*dG*dG*dA*d[5mC]*dT*dT*dG*k[5mC]*k[5mC]*kA; antisense) [Compound 1076165] | 79 |
| 1076549 (antisense kG*kT*kG*d[5mC]*dA*dA*dA*dA*dT*dA*d[5mC]*d[5mC]*dT*kT*kT*kG) [Compound 1076549] | 8 |
| 1075397 (antisense k[5mC]*kA*kT*dT*dA*dT*d[5mC]*dG*d[5mC]*dA*d[5mC]*dA*dT*kA*k[5mC]*kA) [Compound 1075397] | 79 |
| 1075941 (kA*kG*kT*d[5mC]*dA*dA*dT*dA*dG*d[5mC]*dA*dA*dT*k[5mC]*kA*k[5mC]; antisense) [Compound 1075941] | 11 |

Same assay, conditions: Table 20; Yap1 mRNA, percent of untreated control; 3-10-3 cEt gapmers targeting SEQ ID NO.: 1 and 2

| Substance | YAP1 (% UTC) |
| --- | --- |
| 1074918 (antisense kT*k[5mC]*kA*dA*dG*dT*dT*dA*d[5mC]*dA*dT*d[5mC]*d[5mC]*k[5mC]*kG*kA) [Compound 1074918] | 60 |
| 1074566 (antisense k[5mC]*kA*k[5mC]*dT*dG*dA*dA*dT*dT*d[5mC]*d[5mC]*dA*dA*kT*k[5mC]*kG) [Compound 1074566] | 3 |

Same assay, conditions: Table 21; Yap1 mRNA, percent of untreated control; 3-10-3 cEt gapmers targeting SEQ ID NO.: 1 and 2

| Substance | YAP1 (% UTC) |
| --- | --- |
| 1076167 (kA*kA*kA*dT*dT*dT*dA*d[5mC]*dA*d[5mC]*d[5mC]*dA*d[5mC]*k[5mC]*kG*k[5mC]; antisense) [Compound 1076167] | 33 |

Same assay, conditions: Table 22; Yap1 mRNA as percent of untreated control; 3-10-3 cEt gapmers; single dose

| Substance | YAP1 (% UTC) |
| --- | --- |
| 1075464 (antisense k[5mC]*k[5mC]*kA*d[5mC]*dT*dA*dA*dA*d[5mC]*d[5mC]*dA*d[5mC]*d[5mC]*kT*kA*kA) [Compound 1075464] | 77 |
| 1074472 (kA*kA*k[5mC]*d[5mC]*d[5mC]*d[5mC]*d[5mC]*d[5mC]*d[5mC]*dA*d[5mC]*d[5mC]*dG*kA*k[5mC]*k[5mC]; antisense) [Compound 1074472] | 107 |
| 1074536 (antisense kA*kG*kT*dA*dA*dT*dA*dG*d[5mC]*dT*d[5mC]*dT*dT*kT*k[5mC]*kT) [Compound 1074536] | 6 |
| 1076072 (k[5mC]*kA*k[5mC]*dA*dA*dA*dA*dA*d[5mC]*dT*dG*dG*dT*k[5mC]*kT*kG; antisense) [Compound 1076072] | 18 |

Same assay, conditions: Table 23; Yap1 mRNA as percent of untreated control; 3-10-3 cEt gapmers; single dose

| Substance | YAP1 (% UTC) |
| --- | --- |
| 1075881 (kG*kA*kT*dT*dA*dA*d[5mC]*dT*dA*d[5mC]*dA*d[5mC]*d[5mC]*kA*k[5mC]*kG; antisense) [Compound 1075881] | 23 |
| 1075913 (k[5mC]*k[5mC]*k[5mC]*d[5mC]*dT*dA*dT*dA*d[5mC]*dT*dT*dT*dT*kT*kG*kA; antisense) [Compound 1075913] | 46 |
| 1075593 (k[5mC]*kA*kT*dT*dA*dG*dA*dG*dT*dA*dT*dG*dA*kA*k[5mC]*kT; antisense) [Compound 1075593] | 99 |
| 1076297 (kT*kT*kA*dT*dA*dA*dA*dG*dA*d[5mC]*d[5mC]*d[5mC]*dA*kA*kT*kG; antisense) [Compound 1076297] | 52 |

Same assay, conditions: Table 24; Yap1 mRNA as percent of untreated control; 3-10-3 cEt gapmers targeting SEQ ID NO.: 1, and 2

| Substance | YAP1 (% UTC) |
| --- | --- |
| 1074698 (antisense kT*kA*kT*d[5mC]*dA*dA*dG*dG*dT*d[5mC]*d[5mC]*d[5mC]*d[5mC]*k[5mC]*kT*kA) [Compound 1074698] | 78 |
| 1074826 (kA*kA*kA*dT*d[5mC]*d[5mC]*dA*d[5mC]*d[5mC]*dT*dG*dA*dG*k[5mC]*kA*k[5mC]; antisense) [Compound 1074826] | 51 |
| 1076074 (k[5mC]*kT*kA*dA*dT*dT*dA*dG*d[5mC]*dT*dT*dT*d[5mC]*kA*kG*k[5mC]; antisense) [Compound 1076074] | 92 |

Same assay, conditions: Table 25; Yap1 mRNA as percent of untreated control; 3-10-3 cEt gapmers targeting SEQ ID NO.: 1, and 2

| Substance | YAP1 (% UTC) |
| --- | --- |
| 1075915 (kA*kA*kT*dT*dT*dA*dG*dG*dA*dT*dG*d[5mC]*d[5mC]*kT*kT*kT; antisense) [Compound 1075915] | 16 |
| 1075275 (antisense k[5mC]*kT*kA*dG*dA*dA*dA*dG*dG*d[5mC]*d[5mC]*dA*dT*kG*kT*kA) [Compound 1075275] | 76 |
| 1074283 (antisense kA*kA*kA*dA*d[5mC]*dG*dA*dG*dG*dG*dT*d[5mC]*dA*kA*kG*k[5mC]) [Compound 1074283] | 12 |

Same assay, conditions: Table 32; Yap1 mRNA, percent of untreated control; 3-10-3 cEt gapmers targeting SEQ ID NO.: 1, and 2

| Substance | YAP1 (% UTC) |
| --- | --- |
| 1076018 (kA*k[5mC]*kT*dA*dA*dT*dA*dG*dG*dA*dT*dG*dG*kA*kT*kT; antisense) [compound 1076018] | 15 |
| 1075250 (kA*kA*kT*dT*dA*d[5mC]*dG*dA*dT*dT*dA*dG*dA*kT*k[5mC]*kA; antisense) [compound 1075250] | 55 |

Same assay, conditions: Table 33; Yap1 mRNA, percent of untreated control; 3-10-3 cEt gapmers targeting SEQ ID NO.: 1, and 2

| Substance | YAP1 (% UTC) |
| --- | --- |
| 1074323 (antisense k[5mC]*kA*kG*dG*dG*d[5mC]*dT*dA*dA*d[5mC]*dT*d[5mC]*d[5mC]*kT*kG*kA) [compound 1074323] | 116 |
| 1075475 (kT*kA*kG*d[5mC]*dA*dA*d[5mC]*dA*d[5mC]*dA*dT*dG*dA*kA*kG*kA; antisense) [compound 1075475] | 64 |
| 1076563 (k[5mC]*kA*kA*dA*dG*dT*dA*dA*dT*dT*dA*dA*dA*k[5mC]*kG*kA; antisense) [compound 1076563] | 91 |
| 1075411 (antisense k[5mC]*kA*kA*dA*dA*dA*dG*dG*dG*dT*dA*dA*dG*kG*k[5mC]*kA) [compound 1075411] | 39 |
| 1076531 (kA*k[5mC]*kT*dA*dT*dA*dA*dA*dG*dG*dG*dT*dT*kT*kA*kG; antisense) [compound 1076531] | 66 |

Same assay, conditions: Yap1 mRNA as percent of untreated control; A-431 cells; 3-10-3 cEt gapmers targeting SEQ ID NO.: 1, and 2; Table 30

| Substance | YAP1 (% UTC) |
| --- | --- |
| 1075280 (antisense kG*kA*kA*d[5mC]*dT*dA*dT*dA*d[5mC]*dT*dA*dA*d[5mC]*kA*kT*kT) [compound 1075280] | 57 |
| 1076560 (kT*k[5mC]*k[5mC]*dA*dA*dA*dT*dA*dT*dG*dG*d[5mC]*dA*kT*kA*k[5mC]; antisense) [compound 1076560] | 10 |
| 1075536 (kT*kT*kA*dA*dT*dT*dA*d[5mC]*d[5mC]*d[5mC]*dA*dA*dG*kG*kA*k[5mC]; antisense) [compound 1075536] | 55 |

Same assay, conditions: Yap1 mRNA as percent of untreated control; A-431 cells; 3-10-3 cEt gapmers targeting SEQ ID NO.: 1, and 2; Table 31

| Substance | YAP1 (% UTC) |
| --- | --- |
| 1076241 (k[5mC]*kA*kA*dT*dA*dA*dG*dG*dA*dA*d[5mC]*dA*dG*kT*kT*kT; antisense) [compound 1076241] | 42 |
| 1075985 (kA*kT*kA*dT*d[5mC]*dG*dA*dA*dA*dA*dG*d[5mC]*dA*kA*kA*k[5mC]; antisense) [compound 1075985] | 82 |
